Experimental findings from US20070265231A1, “Hydrazide Compounds for Combating Animal Pests” (priority 2005, published 2007) are described below.

The first series has as its system Bean Aphid (Aphis fabae). As to the kind of experiment: Bean aphid mortality test, nasturtium plants dipped in test solution. In kind it is in vivo. The conditions noted are these: 300 ppm, after 3 days. From the text:
I.4 Bean Aphid (Aphis fabae)
Nasturtium plants grown in Metro mix in the 1st leaf-pair stage (variety ‘Mixed Jewel’) were infested with approximately 2-30 laboratory-reared aphids by placing infested cut plants on top of the test plants. The cut plants were removed after 24 hr. Each plant was dipped into the test solution to provide complete coverage of the foliage, stem, protruding seed surface and surrounding cube surface and allowed to dry in the fume hood. The treated plants were kept at about 25° C. with continuous fluorescent light. Aphid mortality is determined after 3 days.
As to `CC(=Cc1cccc(F)c1)CNN(C)C(=O)c1ccccc1` [A93], the “mortality in comparison with untreated controls” value (from here on “mortality in comparison”) worked out at 75%. Same read-out and setting: to `CC(=Cc1ccccc1)CNNC(=O)c1ccc(F)cc1F` [A141] belongs 75%. On the same count and under the same terms, the value for `CC(=Cc1ccccc1F)CNNC(=O)c1ccc(F)cc1F` [A305] was 75%. On to `O=C(NNCC=Cc1ccc(Cl)s1)c1ccccn1` [E1], for which the “mortality in comparison” value came out at 75%.

Consider `CC(C)C(=Cc1ccco1)CNNC(=O)c1ccccn1` [E3], for which the “mortality in comparison” value is given as 75%.

The next series relates to Orchid thrips (dichromothrips corbetti). Kind of series: Orchid thrips mortality test, floral-immersion technique. In kind it is in vivo. The conditions noted are these: 96 h, orchid petals dipped, adult thrips, after 4 days, read-out: mortality in comparison with untreated controls. How it is done:
I.3 Orchid thrips (dichromothrips corbetti)
Dichromothrips corbetti adults used for bioassay were obtained from a colony maintained continuously under laboratory conditions. For testing purposes, the test compound was diluted to a concentration of 500 ppm (wt compound: vol diluent) in a 1:1 mixture of acetone:water, plus 0.01% Kinetic® surfactant.
Thrips potency of each compound was evaluated by using a floral-immersion technique. Plastic petri dishes were used as test arenas. All petals of individual, intact orchid flowers were dipped into treatment solution for approximately 3 seconds and allowed to dry for 2 hours. Treated flowers were placed into individual petri dishes along with 10-15 adult thrips. The petri dishes were then covered with lids. All test arenas were held under continuous light and a temperature of about 28° C. for duration of the assay. After 4 days, the numbers of live thrips were counted on each flower, and along inner walls of each petri dish. The level of thrips mortality was extrapolated from pre-treatment thrips numbers.
For the compound `CC(=Cc1cccc(F)c1)CNNC(=O)c1ccccc1F` [A1, 2-Fluorobenzoic acid N′-[3-(3-fluorophenyl)-2-methyl-allyl]hydrazide], the mortality (usually the percentage killed) at 300 ppm was more than 75%.
